The text below walks through data of ChEMBL document CHEMBL1201862, “PubChem BioAssay data set” (2004).

SMILES strings stand for the structures.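 Method: 48-hour compound exposure of cells in 96-well plates, five concentrations, linear interpolation of endpoints. GI50 marks 50% less growth.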 Activity calls are given as the source filed them. No stated cut-off is given here; in the data, active = GI50 up to about 1.1 µM and inactive = higher.

Among the test systems are SK-MEL-5; SNB-75; MOLT-4; A549; SW-620; SNB-19; HOP-92; SK-MEL-28; SF-268; MCF7; RXF 393; NCI-H226; T47D; OVCAR-5; IGROV-1; DU-145; Hs-578T; A498; EKVX; HCC 2998.
Holding throughout (assay): NCI-60 cell line screen, 48 h

Take `Nc1nc(N)c2ncn(Cc3c(Cl)cccc3Cl)c2n1`: the GI50 is > 100 µM (inactive) in the assay on SK-MEL-5; 1.6 µM (inactive) in the assay on SNB-75; > 100 µM (inactive) with MOLT-4; > 100 µM (inactive) in the assay with A549; > 100 µM (inactive) in the assay with SW-620; > 100 µM (inactive) in the assay with SNB-19. For the same molecule, the GI50 in the assay with HOP-92, with SK-MEL-28, with SF-268, in the assay with MCF7, in the assay on RXF 393 and with NCI-H226 was > 100 µM (inactive) each time. For the same molecule, the GI50 in the assay with T47D, in the assay on OVCAR-5, in the assay with IGROV-1, in the assay on DU-145, with Hs-578T and in the assay with A498 was > 100 µM (inactive) each time. The GI50 in the assay on EKVX was 28.4 µM (inactive); with HCC 2998, > 100 µM (inactive).
On to `CC12CCC(C(Br)(Br)C1=O)C2(C)C` (stereo not given), for which the GI50 is 0.348 µM (active) in the assay with SK-MEL-5; 0.711 µM (active) in the assay with SNB-75; 0.091 µM (active) in the assay with MOLT-4; 4.07 µM (inactive) with A549; < 0.0476 µM (active) with SW-620; 9.62 µM (inactive) in the assay with SNB-19. Also, the GI50 with HOP-92 was 0.617 µM (active); with SK-MEL-28 it was 0.826 µM (active); with SF-268, 0.0989 µM (active); in the assay on MCF7 it was 0.082 µM (active); with RXF 393 it was 0.183 µM (active); in the assay with NCI-H226, 2.03 µM (inactive). Besides, the GI50 was 0.0467 µM (active) in the assay with T47D; 2.28 µM (inactive) in the assay on OVCAR-5; < 0.0422 µM (active) in the assay on IGROV-1; 6.08 µM (inactive) in the assay on DU-145; 0.251 µM (active) with Hs-578T; 3.68 µM (inactive) with A498. For the same molecule, the figures for the GI50 in the assay with EKVX and in the assay with HCC 2998 were 0.493 µM (active) and 2.28 µM (inactive), respectively.
For the molecule `O=C(/C=C/c1ccccc1)Oc1cccc(Br)c1`, the GI50 in the assay on SK-MEL-5 is 55.3 µM (inactive); in the assay with SNB-75 it was 45.3 µM (inactive); in the assay on MOLT-4, 11.6 µM (inactive); with A549, 69.8 µM (inactive); with SW-620, 44.2 µM (inactive); with SNB-19, 31.7 µM (inactive). Further, the GI50 is 91 µM (inactive) in the assay with HOP-92; > 100 µM (inactive) with SK-MEL-28; 24.3 µM (inactive) in the assay with SF-268; 20.5 µM (inactive) with MCF7; 56.8 µM (inactive) with RXF 393; > 100 µM (inactive) in the assay with NCI-H226. Besides, the GI50 with T47D is 53.3 µM (inactive); in the assay on OVCAR-5 it was > 100 µM (inactive); in the assay with IGROV-1, 17.7 µM (inactive); in the assay with DU-145, 89.9 µM (inactive); in the assay on Hs-578T, 16.6 µM (inactive); with A498, 61.8 µM (inactive). The GI50 in the assay on EKVX is 48.3 µM (inactive); in the assay with HCC 2998, 35.7 µM (inactive).
In the case of `CO/C(N)=C(C#N)/N=C/c1cccs1`, the GI50 in the assay with SK-MEL-5 is 39.4 µM (inactive); with SNB-75, 73.5 µM (inactive); with MOLT-4 it was 62.8 µM (inactive); in the assay on A549, > 100 µM (inactive); with SW-620 it was 68.1 µM (inactive); with SNB-19 it was > 100 µM (inactive). Moreover, the GI50 with HOP-92 was > 100 µM (inactive); with SK-MEL-28, 45.4 µM (inactive); in the assay on SF-268, > 100 µM (inactive); in the assay on MCF7, 24.4 µM (inactive); with RXF 393, > 100 µM (inactive); in the assay with NCI-H226, > 100 µM (inactive). In addition, the GI50 with T47D was 76.6 µM (inactive); with OVCAR-5, > 100 µM (inactive); with IGROV-1 it was 77.6 µM (inactive); with DU-145, > 100 µM (inactive); in the assay with Hs-578T, 66.2 µM (inactive); in the assay with A498, 33.2 µM (inactive). For the same molecule, the results for the GI50 in the assay with EKVX and in the assay with HCC 2998 were 42.4 µM (inactive) and > 100 µM (inactive), respectively.
For `CCOC(=O)OC1(c2ccccc2)CCN(C)CC1`, the GI50 with SK-MEL-5, with SNB-75, in the assay with MOLT-4, in the assay on A549, in the assay on SW-620 and in the assay with SNB-19 was > 100 µM (inactive) throughout. Moreover, the GI50 in the assay on HOP-92, in the assay on SK-MEL-28, in the assay on SF-268, in the assay with MCF7, with RXF 393 and in the assay with NCI-H226 was > 100 µM (inactive) in each case. Also, the GI50 with T47D, with OVCAR-5, with IGROV-1, with DU-145, in the assay on Hs-578T and with A498 was > 100 µM (inactive) in each case. The GI50 with EKVX and with HCC 2998 was > 100 µM (inactive) in each case.
For `N#CC1(C#N)C2CCCCC23OC(=N)C1(C#N)C(c1ccco1)O3` (stereo not given), the GI50 in the assay on SK-MEL-5 is 15.5 µM (inactive); in the assay with SNB-75, 55.5 µM (inactive); in the assay with MOLT-4, 23 µM (inactive); with A549, > 100 µM (inactive); with SW-620 it was 7.76 µM (inactive); with SNB-19, 31.6 µM (inactive). The GI50 was 13.8 µM (inactive) in the assay on HOP-92; 15.6 µM (inactive) in the assay with SK-MEL-28; 30.8 µM (inactive) in the assay on SF-268; 21.9 µM (inactive) in the assay with MCF7; 21.7 µM (inactive) in the assay with RXF 393; > 100 µM (inactive) in the assay with NCI-H226. The GI50 was 17.6 µM (inactive) in the assay with T47D; 24.9 µM (inactive) in the assay with OVCAR-5; 18.3 µM (inactive) in the assay with IGROV-1; 25.9 µM (inactive) in the assay on DU-145; 30.8 µM (inactive) in the assay with Hs-578T; 21.9 µM (inactive) in the assay on A498. Moreover, the GI50 in the assay with EKVX is 25.8 µM (inactive); with HCC 2998, 15.1 µM (inactive).
Take `O=C(O)C1=NN(c2ccc(S(=O)(=O)O)cc2)C2(C1)C(Cl)C(=O)N2c1nc2ccccc2s1` (stereo not given): the GI50 is 12.8 µM (inactive) with SK-MEL-5; 13.5 µM (inactive) in the assay on SNB-75; 15.3 µM (inactive) in the assay with MOLT-4; 16.6 µM (inactive) with A549; 2.68 µM (inactive) in the assay with SW-620; 21.3 µM (inactive) in the assay with SNB-19. For the same molecule, the GI50 is 20.5 µM (inactive) with HOP-92; 20.2 µM (inactive) with SK-MEL-28; 17.9 µM (inactive) in the assay on SF-268; 14.4 µM (inactive) in the assay on MCF7; 16.1 µM (inactive) in the assay on RXF 393; 16.5 µM (inactive) with NCI-H226. In addition, the GI50 with T47D is 20.5 µM (inactive); with OVCAR-5, 17.1 µM (inactive); in the assay on IGROV-1, 7.83 µM (inactive); in the assay with DU-145, 19.1 µM (inactive); in the assay with Hs-578T, 47.6 µM (inactive); in the assay on A498 it was 19.1 µM (inactive). The GI50 with EKVX was 16 µM (inactive); with HCC 2998 it was 18.8 µM (inactive).
With `CC(=O)CCCCn1c(=O)c2c(nc(Br)n2C)n(C)c1=O`, the GI50 with SK-MEL-5, in the assay with SNB-75, in the assay on MOLT-4, with A549, in the assay with SW-620 and in the assay with SNB-19 was > 100 µM (inactive) throughout. The GI50 is 11.7 µM (inactive) in the assay with HOP-92; > 100 µM (inactive) with SK-MEL-28; > 100 µM (inactive) with SF-268; > 100 µM (inactive) with MCF7; > 100 µM (inactive) in the assay on RXF 393; > 100 µM (inactive) with NCI-H226. Moreover, the GI50 in the assay on T47D is > 100 µM (inactive); in the assay on OVCAR-5, > 100 µM (inactive); with IGROV-1 it was 44.2 µM (inactive); in the assay with DU-145, > 100 µM (inactive); in the assay with Hs-578T, > 100 µM (inactive); in the assay with A498, 95.9 µM (inactive). Besides, the GI50 was 28.3 µM (inactive) in the assay on EKVX and 95.3 µM (inactive) in the assay on HCC 2998.
As for `Cn1c2ccc3cc2c(=S)c2cc(ccc21)OCCOCCOCCOCCOCCOCCO3`, the GI50 with SK-MEL-5, in the assay with SNB-75, with MOLT-4, in the assay on A549, with SW-620 and with SNB-19 was > 10 µM (inactive) in each case. Moreover, the GI50 in the assay with HOP-92, with SK-MEL-28, with SF-268, in the assay with MCF7, with RXF 393 and in the assay on NCI-H226 was > 10 µM (inactive) each time. Further, the GI50 in the assay on T47D, in the assay with OVCAR-5, with IGROV-1, in the assay with DU-145, in the assay with Hs-578T and with A498 was > 10 µM (inactive) each time. The GI50 in the assay on EKVX and in the assay with HCC 2998 was > 10 µM (inactive) in each case.
Turning to `OC(c1cc(-c2ccccc2)nc2c1ccc1ccccc12)C1CCCCN1` (stereo not given), the GI50 with SK-MEL-5 was 2.8 µM (inactive); in the assay on SNB-75 it was 1.98 µM (inactive); in the assay with MOLT-4, 2.18 µM (inactive); with A549, 1.85 µM (inactive); in the assay on SW-620, 1.78 µM (inactive); in the assay with SNB-19 it was 1.82 µM (inactive). Further, the GI50 in the assay on HOP-92 was 1.62 µM (inactive); in the assay with SK-MEL-28, 1.81 µM (inactive); in the assay with SF-268 it was 1.43 µM (inactive); in the assay on MCF7, 1.87 µM (inactive); in the assay on RXF 393, 1.81 µM (inactive); in the assay with NCI-H226, 2.95 µM (inactive). Also, the GI50 is 1.93 µM (inactive) with T47D; 1.6 µM (inactive) with OVCAR-5; 1.68 µM (inactive) in the assay with IGROV-1; 2.02 µM (inactive) with DU-145; 1.51 µM (inactive) in the assay on Hs-578T; 1.92 µM (inactive) in the assay with A498. Further, the GI50 was 1.93 µM (inactive) in the assay with EKVX and 0.59 µM (active) in the assay with HCC 2998.
